# From the kinase profiling compilation of Christmann-Franck et al. (2016)
# Assays:
# Assay in all cases: KINOMEscan competition binding
# Conditions in all cases: compound 10.0 µM
# STK36 (human) = STK36 (human) (UniProt Q9NRP7)
# MARK1 (human) = MARK1 (human) (UniProt Q9P0L2)
# CDC42BPG (human) = CDC42BPG (human) (UniProt Q6DT37)
# CAMK2B (human) = CAMK2B (human) (UniProt Q13554)
# MAPK1 (human) = MAPK1 (human) (UniProt P28482)
# RET (human) = RET (human) (UniProt P07949)
# FGFR1 (human) = FGFR1 (human) (UniProt P11362)
# EPHB3 (human) = EPHB3 (human) (UniProt P54753)
# EPHB3 (human), sequence (P54753 whole entry, looked up): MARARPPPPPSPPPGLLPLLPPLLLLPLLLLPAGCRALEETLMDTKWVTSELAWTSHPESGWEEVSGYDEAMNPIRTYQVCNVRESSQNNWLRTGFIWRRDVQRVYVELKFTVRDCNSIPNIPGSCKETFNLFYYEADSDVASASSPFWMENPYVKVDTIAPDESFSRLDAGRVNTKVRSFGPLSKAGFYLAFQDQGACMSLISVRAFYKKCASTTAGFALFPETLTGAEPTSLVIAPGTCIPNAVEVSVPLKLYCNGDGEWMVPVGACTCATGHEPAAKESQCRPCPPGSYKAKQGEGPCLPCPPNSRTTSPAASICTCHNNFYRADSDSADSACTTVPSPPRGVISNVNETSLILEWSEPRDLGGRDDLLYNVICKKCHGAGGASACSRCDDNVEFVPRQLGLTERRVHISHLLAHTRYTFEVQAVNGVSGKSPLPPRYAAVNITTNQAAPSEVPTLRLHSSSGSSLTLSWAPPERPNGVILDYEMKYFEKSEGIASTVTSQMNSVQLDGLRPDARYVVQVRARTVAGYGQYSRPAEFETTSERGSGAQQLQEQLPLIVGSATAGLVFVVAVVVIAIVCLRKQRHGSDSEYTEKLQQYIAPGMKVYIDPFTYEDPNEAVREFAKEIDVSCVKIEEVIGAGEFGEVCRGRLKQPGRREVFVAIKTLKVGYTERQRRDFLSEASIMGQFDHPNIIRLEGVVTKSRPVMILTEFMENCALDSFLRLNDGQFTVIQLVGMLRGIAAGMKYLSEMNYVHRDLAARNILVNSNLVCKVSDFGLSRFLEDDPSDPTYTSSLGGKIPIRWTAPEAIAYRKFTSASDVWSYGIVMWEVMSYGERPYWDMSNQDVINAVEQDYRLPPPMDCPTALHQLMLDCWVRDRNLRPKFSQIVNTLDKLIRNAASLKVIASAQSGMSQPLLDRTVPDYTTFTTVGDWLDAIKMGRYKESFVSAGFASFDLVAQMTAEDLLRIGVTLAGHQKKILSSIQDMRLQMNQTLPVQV
# HCK (human) = HCK (human) (UniProt P08631)
# EPHA5 (human) = EPHA5 (human) (UniProt P54756)
# MAPK9 (human) = MAPK9 (human) (UniProt P45984)
# RPS6KA2 KD1 (human) = RPS6KA2 KD1 (human) (UniProt Q15349)
# MAPK14 (human) = MAPK14 (human) (UniProt Q16539)
# MAPK14 (human), sequence (Q16539 whole entry, looked up): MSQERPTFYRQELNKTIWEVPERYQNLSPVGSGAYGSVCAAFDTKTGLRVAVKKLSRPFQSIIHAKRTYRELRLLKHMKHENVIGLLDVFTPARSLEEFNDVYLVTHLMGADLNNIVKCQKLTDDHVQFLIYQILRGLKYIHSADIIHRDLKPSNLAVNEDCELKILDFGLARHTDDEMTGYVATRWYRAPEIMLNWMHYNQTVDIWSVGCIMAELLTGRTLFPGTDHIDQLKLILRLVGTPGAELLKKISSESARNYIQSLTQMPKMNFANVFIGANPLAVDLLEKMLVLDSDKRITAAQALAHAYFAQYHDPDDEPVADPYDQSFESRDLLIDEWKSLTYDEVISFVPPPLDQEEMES
# MAP4K3 (human) = MAP4K3 (human) (UniProt Q8IVH8)
# MAP4K3 (human), sequence (Q8IVH8 whole entry, looked up): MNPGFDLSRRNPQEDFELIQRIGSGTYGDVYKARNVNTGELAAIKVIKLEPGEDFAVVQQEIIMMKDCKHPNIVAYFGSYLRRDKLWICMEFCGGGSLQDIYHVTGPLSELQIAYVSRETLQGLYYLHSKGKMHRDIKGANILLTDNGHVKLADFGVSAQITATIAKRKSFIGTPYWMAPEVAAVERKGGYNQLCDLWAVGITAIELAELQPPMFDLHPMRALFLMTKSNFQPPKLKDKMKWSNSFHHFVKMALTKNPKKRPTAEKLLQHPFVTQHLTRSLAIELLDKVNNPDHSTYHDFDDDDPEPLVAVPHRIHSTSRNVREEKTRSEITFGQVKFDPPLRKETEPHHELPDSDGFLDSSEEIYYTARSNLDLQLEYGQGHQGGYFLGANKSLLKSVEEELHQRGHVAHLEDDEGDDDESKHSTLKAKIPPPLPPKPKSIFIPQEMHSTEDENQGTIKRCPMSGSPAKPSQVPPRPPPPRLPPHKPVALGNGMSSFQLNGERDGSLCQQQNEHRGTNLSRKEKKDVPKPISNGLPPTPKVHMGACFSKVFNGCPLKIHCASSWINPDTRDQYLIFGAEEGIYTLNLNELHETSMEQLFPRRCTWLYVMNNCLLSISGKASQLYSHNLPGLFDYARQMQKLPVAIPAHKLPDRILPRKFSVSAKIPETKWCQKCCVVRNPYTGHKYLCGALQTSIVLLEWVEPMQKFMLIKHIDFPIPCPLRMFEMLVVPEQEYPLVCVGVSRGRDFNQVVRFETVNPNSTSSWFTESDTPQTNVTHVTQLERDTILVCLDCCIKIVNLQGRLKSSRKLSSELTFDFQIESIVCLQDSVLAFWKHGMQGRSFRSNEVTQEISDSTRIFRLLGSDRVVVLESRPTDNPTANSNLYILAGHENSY
# MAP2K1 (human) = MAP2K1 (human) (UniProt Q02750)
# FGFR2 (human) = FGFR2 (human) (UniProt P21802)
# MAP4K5 (human) = MAP4K5 (human) (UniProt Q9Y4K4)
# MYO3B (human) = MYO3B (human) (UniProt Q8WXR4)
# INSR (human) = INSR (human) (UniProt P06213)
# FLT4 (human) = FLT4 (human) (UniProt P35916)
# EPHB1 (human) = EPHB1 (human) (UniProt P54762)
# MYLK2 (human) = MYLK2 (human) (UniProt Q9H1R3)
# [1] = tested on: ABL1 (human), P00519 [Q252H]
# RPS6KA6 KD1 (human) = RPS6KA6 KD1 (human) (UniProt Q9UK32)
# ULK1 (human) = ULK1 (human) (UniProt O75385)
# PKMYT1 (human) = PKMYT1 (human) (UniProt Q99640)
# MAPK7 (human) = MAPK7 (human) (UniProt Q13164)
# NEK5 (human) = NEK5 (human) (UniProt Q6P3R8)
# NEK5 (human), sequence (Q6P3R8 whole entry, looked up): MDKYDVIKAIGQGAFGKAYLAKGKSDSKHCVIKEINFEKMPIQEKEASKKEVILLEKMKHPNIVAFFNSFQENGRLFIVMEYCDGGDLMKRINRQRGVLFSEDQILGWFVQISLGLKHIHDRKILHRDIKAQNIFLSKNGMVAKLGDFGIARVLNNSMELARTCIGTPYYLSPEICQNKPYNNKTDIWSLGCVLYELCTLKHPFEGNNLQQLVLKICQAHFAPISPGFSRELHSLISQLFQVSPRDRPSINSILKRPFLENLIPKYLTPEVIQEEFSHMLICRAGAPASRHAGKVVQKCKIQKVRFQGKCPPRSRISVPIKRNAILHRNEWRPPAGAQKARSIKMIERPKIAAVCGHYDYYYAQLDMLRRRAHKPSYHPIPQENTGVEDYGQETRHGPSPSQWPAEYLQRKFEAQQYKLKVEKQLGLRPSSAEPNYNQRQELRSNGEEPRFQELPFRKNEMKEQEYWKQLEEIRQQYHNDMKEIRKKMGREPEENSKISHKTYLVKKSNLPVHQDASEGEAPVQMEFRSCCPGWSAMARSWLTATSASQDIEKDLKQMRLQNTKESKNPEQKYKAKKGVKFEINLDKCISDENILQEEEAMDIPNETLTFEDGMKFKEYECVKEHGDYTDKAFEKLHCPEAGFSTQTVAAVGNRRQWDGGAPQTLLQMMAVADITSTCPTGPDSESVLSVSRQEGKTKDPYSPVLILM
# ADCK4 (human) = ADCK4 (human) (UniProt Q96D53)
# ADCK4 (human), sequence (Q96D53 whole entry, looked up): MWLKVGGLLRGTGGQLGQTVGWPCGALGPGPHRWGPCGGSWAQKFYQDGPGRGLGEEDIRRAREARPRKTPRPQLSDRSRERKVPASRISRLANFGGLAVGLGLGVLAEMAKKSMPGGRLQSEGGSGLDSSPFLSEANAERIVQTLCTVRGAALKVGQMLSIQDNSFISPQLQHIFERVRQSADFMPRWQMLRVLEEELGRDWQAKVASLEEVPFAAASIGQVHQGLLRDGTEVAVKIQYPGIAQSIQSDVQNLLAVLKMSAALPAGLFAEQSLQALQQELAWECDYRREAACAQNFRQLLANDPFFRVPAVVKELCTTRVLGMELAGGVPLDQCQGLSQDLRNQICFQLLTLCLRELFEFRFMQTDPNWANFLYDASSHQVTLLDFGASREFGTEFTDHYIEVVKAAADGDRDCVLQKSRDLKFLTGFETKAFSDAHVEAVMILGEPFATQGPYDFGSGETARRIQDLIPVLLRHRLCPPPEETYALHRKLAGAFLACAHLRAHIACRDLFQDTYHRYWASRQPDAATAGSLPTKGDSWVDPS
# STK25 (human) = STK25 (human) (UniProt O00506)
# [2] = tested on: RET (human), P07949 [V804L]
# RPS6KA5 KD1 (human) = RPS6KA5 KD1 (human) (UniProt O75582)
# ZAP70 (human) = ZAP70 (human) (UniProt P43403)
# STK35 (human) = STK35 (human) (UniProt Q8TDR2)
# PRKD2 (human) = PRKD2 (human) (UniProt Q9BZL6)
# CDC42BPA (human) = CDC42BPA (human) (UniProt Q5VT25)
# IKBKE (human) = IKBKE (human) (UniProt Q14164)
# IKBKE (human), sequence (Q14164 whole entry, looked up): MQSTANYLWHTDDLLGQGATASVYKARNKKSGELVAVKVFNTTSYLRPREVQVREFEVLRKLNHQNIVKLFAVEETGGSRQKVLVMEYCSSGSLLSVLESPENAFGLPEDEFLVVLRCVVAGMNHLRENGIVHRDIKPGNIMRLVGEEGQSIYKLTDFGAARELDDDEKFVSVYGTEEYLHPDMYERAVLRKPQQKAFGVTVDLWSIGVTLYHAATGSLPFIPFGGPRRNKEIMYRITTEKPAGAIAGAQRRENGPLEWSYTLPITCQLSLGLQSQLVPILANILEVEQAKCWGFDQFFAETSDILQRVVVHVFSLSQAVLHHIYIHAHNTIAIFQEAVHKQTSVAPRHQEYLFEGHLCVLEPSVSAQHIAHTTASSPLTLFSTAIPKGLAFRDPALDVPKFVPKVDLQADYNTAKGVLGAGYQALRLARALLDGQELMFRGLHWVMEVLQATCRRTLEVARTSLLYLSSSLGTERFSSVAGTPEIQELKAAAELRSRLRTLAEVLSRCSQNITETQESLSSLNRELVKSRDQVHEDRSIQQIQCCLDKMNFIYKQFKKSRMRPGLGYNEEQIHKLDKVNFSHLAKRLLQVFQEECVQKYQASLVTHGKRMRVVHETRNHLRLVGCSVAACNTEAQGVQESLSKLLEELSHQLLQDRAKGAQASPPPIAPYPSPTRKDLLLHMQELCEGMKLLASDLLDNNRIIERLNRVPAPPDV
# [3] = tested on: ABL1 (human), P00519 [Y253F]
# EPHB4 (human) = EPHB4 (human) (UniProt P54760)
# PRKX (human) = PRKX (human) (UniProt P51817)
# MAPK10 (human) = MAPK10 (human) (UniProt P53779)
# PAK4 (human) = PAK4 (human) (UniProt O96013)
# MARK1 (human), sequence (Q9P0L2 whole entry, looked up): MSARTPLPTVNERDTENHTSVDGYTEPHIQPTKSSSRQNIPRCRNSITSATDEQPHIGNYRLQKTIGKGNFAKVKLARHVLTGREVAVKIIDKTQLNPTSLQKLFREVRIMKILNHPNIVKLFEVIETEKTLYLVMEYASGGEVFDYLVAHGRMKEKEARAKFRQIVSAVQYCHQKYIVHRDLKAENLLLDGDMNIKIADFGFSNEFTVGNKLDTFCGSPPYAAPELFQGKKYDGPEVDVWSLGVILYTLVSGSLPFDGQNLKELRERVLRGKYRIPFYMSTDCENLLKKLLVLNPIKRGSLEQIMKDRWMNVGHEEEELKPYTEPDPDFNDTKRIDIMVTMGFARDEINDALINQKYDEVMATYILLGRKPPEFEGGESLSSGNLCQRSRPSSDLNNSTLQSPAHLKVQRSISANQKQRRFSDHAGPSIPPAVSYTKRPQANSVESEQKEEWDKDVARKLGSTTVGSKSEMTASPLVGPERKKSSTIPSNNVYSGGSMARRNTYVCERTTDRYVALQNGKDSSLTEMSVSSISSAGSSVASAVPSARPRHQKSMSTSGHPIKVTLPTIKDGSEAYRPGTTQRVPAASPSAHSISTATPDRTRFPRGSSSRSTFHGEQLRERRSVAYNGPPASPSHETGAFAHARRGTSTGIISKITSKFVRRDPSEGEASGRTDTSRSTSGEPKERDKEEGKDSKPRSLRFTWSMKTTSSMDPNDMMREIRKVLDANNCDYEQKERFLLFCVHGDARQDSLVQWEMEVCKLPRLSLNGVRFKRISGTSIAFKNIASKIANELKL
smiles,measurement,setting,value
CN1CCN(c2ccc(C(=O)Nc3ncc4c(n3)N(C)c3ccccc3C(=O)N4C)cc2)CC1,"kinase still bound, per cent of control",STK36 (human),100%
same,"kinase still bound, per cent of control",MARK1 (human),96%
same,"kinase still bound, per cent of control",CDC42BPG (human),100%
same,"kinase still bound, per cent of control",CAMK2B (human),98%
same,"kinase still bound, per cent of control",MAPK1 (human),100%
same,"kinase still bound, per cent of control",RET (human),100%
same,"kinase still bound, per cent of control",FGFR1 (human),100%
same,"kinase still bound, per cent of control",EPHB3 (human),100%
same,"kinase still bound, per cent of control",HCK (human),100%
same,"kinase still bound, per cent of control",EPHA5 (human),100%
same,"kinase still bound, per cent of control",MAPK9 (human),100%
same,"kinase still bound, per cent of control",RPS6KA2 KD1 (human),100%
same,"kinase still bound, per cent of control",MAPK14 (human),100%
same,"kinase still bound, per cent of control",MAP4K3 (human),100%
same,"kinase still bound, per cent of control",MAP2K1 (human),100%
same,"kinase still bound, per cent of control",FGFR2 (human),100%
same,"kinase still bound, per cent of control",MAP4K5 (human),100%
same,"kinase still bound, per cent of control",MYO3B (human),93%
same,"kinase still bound, per cent of control",INSR (human),100%
same,"kinase still bound, per cent of control",FLT4 (human),100%
same,"kinase still bound, per cent of control",EPHB1 (human),100%
same,"kinase still bound, per cent of control",MYLK2 (human),100%
same,"kinase still bound, per cent of control",[1],100%
same,"kinase still bound, per cent of control",RPS6KA6 KD1 (human),100%
same,"kinase still bound, per cent of control",ULK1 (human),78%
same,"kinase still bound, per cent of control",PKMYT1 (human),93%
same,"kinase still bound, per cent of control",MAPK7 (human),65%
same,"kinase still bound, per cent of control",NEK5 (human),100%
same,"kinase still bound, per cent of control",ADCK4 (human),100%
same,"kinase still bound, per cent of control",STK25 (human),100%
same,"kinase still bound, per cent of control",[2],100%
same,"kinase still bound, per cent of control",RPS6KA5 KD1 (human),87%
same,"kinase still bound, per cent of control",ZAP70 (human),100%
same,"kinase still bound, per cent of control",STK35 (human),100%
same,"kinase still bound, per cent of control",PRKD2 (human),100%
same,"kinase still bound, per cent of control",CDC42BPA (human),100%
same,"kinase still bound, per cent of control",IKBKE (human),100%
same,"kinase still bound, per cent of control",[3],100%
same,"kinase still bound, per cent of control",EPHB4 (human),97%
same,"kinase still bound, per cent of control",PRKX (human),86%
same,"kinase still bound, per cent of control",MAPK10 (human),93%
same,"kinase still bound, per cent of control",PAK4 (human),100%
COc1cc(N2CCN(C)CC2)ccc1Nc1ncc2c(n1)N(C)c1sccc1C(=O)N2C,"kinase still bound, per cent of control",STK36 (human),100%
same,"kinase still bound, per cent of control",MARK1 (human),64%
same,"kinase still bound, per cent of control",CDC42BPG (human),91%
same,"kinase still bound, per cent of control",CAMK2B (human),58%
same,"kinase still bound, per cent of control",MAPK1 (human),83%
same,"kinase still bound, per cent of control",RET (human),85%
same,"kinase still bound, per cent of control",FGFR1 (human),100%
same,"kinase still bound, per cent of control",EPHB3 (human),93%
same,"kinase still bound, per cent of control",HCK (human),100%
same,"kinase still bound, per cent of control",EPHA5 (human),80%
same,"kinase still bound, per cent of control",MAPK9 (human),82%
same,"kinase still bound, per cent of control",RPS6KA2 KD1 (human),82%
same,"kinase still bound, per cent of control",MAPK14 (human),82%
same,"kinase still bound, per cent of control",MAP4K3 (human),79%
same,"kinase still bound, per cent of control",MAP2K1 (human),90%
same,"kinase still bound, per cent of control",FGFR2 (human),81%
same,"kinase still bound, per cent of control",MAP4K5 (human),99%
same,"kinase still bound, per cent of control",MYO3B (human),52%
same,"kinase still bound, per cent of control",INSR (human),100%
same,"kinase still bound, per cent of control",FLT4 (human),96%
same,"kinase still bound, per cent of control",EPHB1 (human),88%
same,"kinase still bound, per cent of control",MYLK2 (human),90%
same,"kinase still bound, per cent of control",[1],90%
same,"kinase still bound, per cent of control",RPS6KA6 KD1 (human),96%
same,"kinase still bound, per cent of control",ULK1 (human),6.5%
same,"kinase still bound, per cent of control",PKMYT1 (human),92%
same,"kinase still bound, per cent of control",MAPK7 (human),0.1%
same,"kinase still bound, per cent of control",NEK5 (human),94%
same,"kinase still bound, per cent of control",ADCK4 (human),78%
same,"kinase still bound, per cent of control",STK25 (human),80%
same,"kinase still bound, per cent of control",[2],89%
same,"kinase still bound, per cent of control",RPS6KA5 KD1 (human),86%
same,"kinase still bound, per cent of control",ZAP70 (human),74%
same,"kinase still bound, per cent of control",STK35 (human),89%
same,"kinase still bound, per cent of control",PRKD2 (human),9.2%
same,"kinase still bound, per cent of control",CDC42BPA (human),98%
same,"kinase still bound, per cent of control",IKBKE (human),100%
same,"kinase still bound, per cent of control",[3],99%
same,"kinase still bound, per cent of control",EPHB4 (human),100%
same,"kinase still bound, per cent of control",PRKX (human),82%
same,"kinase still bound, per cent of control",MAPK10 (human),70%
same,"kinase still bound, per cent of control",PAK4 (human),84%
